In patent US20250179120A1, “CYCLIC PEPTIDE OR SALT THEREOF, AND MDMX INHIBITOR” (FUJIFILM Corporation, priority 2022, published 2025):
Numbered stars: 1 amine (or outer) side, 2 acyl side, 3 side chain; on linkers, the order of the positions; unused ones are H or OH. Square brackets hold non-standard residues; d marks the D form. Peptide text beside a SMILES is read from it. Ala(4-thiazolyl) = N[C@@H](Cc1cscn1)C(=O)O; Phe(4-Cl) = N[C@@H](Cc1ccc(Cl)cc1)C(=O)O; X1 = O=C(CSC[C@H](Cc1cscn1)N[*:1])[*:2]; Phe(4-F) = N[C@@H](Cc1ccc(F)cc1)C(=O)O; NHCH2CH2SCH2CO = O=C(CSCCN[*:1])[*:2]; NMeF = CN[C@@H](Cc1ccccc1)C(=O)O; Tle = CC(C)(C)[C@H](N)C(=O)O; hSer = N[C@@H](CCO)C(=O)O; NMeA = CN[C@@H](C)C(=O)O; dNMeA = CN[C@H](C)C(=O)O; Nme = COCCNCC(=O)O

Test: Evaluation of cell membrane permeability (MDCKII permeation test, Papp)
Assay type: in vitro ADME
Conditions: MDCK, MDCKII cell layer, 10 μM in HBSS, apical to basal, 37° C.; for Papp A→B: 2 hours
Method: Evaluation of the cell membrane permeability of the cyclic peptide according to the embodiment of the present invention was carried out.
300 μL of MDCKII cells (ECACC standard cell line) were seeded at a density of 1.0×10^6 cells/mL onto an insert (dedicated for a 24-well plate, pore diameter: 3.0 μm, manufactured by Corning Incorporated) and cultured at 37° C. in a 5% CO2 environment. After three days, the electric resistance value of the cell layer was measured (using a measuring device), and it was confirmed that the cell layer had high barrier properties (>100 Ω·cm^2).
After the insert was washed by being immersed in HBSS (phenol red-free, the same applies hereinafter), 200 μL of a sample prepared in 10 μM/HBSS was added thereto, and the insert was allowed to stand in a low-adsorption 24-well plate containing 900 μL of HBSS (37° C., 5% CO2). After 2 hours, each liquid of an upper layer (apical) and a lower layer (basal) of the insert (10 μL for apical and 500 μL for basal) was recovered. After testing, no leakage was confirmed with Lucifer Yellow, which is a non-permeable fluorescent dye.
The device used was LC/MS/MS (triple quadrupole type).
Eluent: A) 5 mM ammonium formate, 0.2% formic acid/H2O, B) 0.1% formic acid/MeCN, flow rate: 0.5 mL/min, injection volume: 2 μL, column: ACQUITY UPLC BEH C18 Column, 1.7 μm, 2.1 mm×50 mm (manufactured by Waters Corporation), temperature: 70° C., gradient (% B): 2% (0 to 0.5 min)→98% (2 to 3 min)→2% (3 to 5 min), ionization: ESI, detection mode: MRM (positive)
Based on the calculation expression shown in Expression (1), a permeability coefficient Papp, which represents the membrane permeability, was calculated from each quantitative value.
C0: initial concentration (10 μM)
S: surface area (0.33 cm^2) of single layer membrane
dC/dt: concentration change at basal [μM/s]

| Compound | Papp A→B at 2 h, 10 μM (dog) | Papp A→B |
| --- | --- | --- |
| COCC[C@@H]1NC(=O)[C@@H](C)N(C)C(=O)[C@H](Cc2ccccc2)N(C)C(=O)[C@H](Cc2ccc(Cl)cc2)NC(=O)[C@H]([C@@H](C)O)NC(=O)[C@H](Cc2ccc(F)cc2)NC(=O)[C@@H]2CCCN2C(=O)CSCCNC(=O)[C@H](C)N(C)C1=O [compound 3] (cyclo([NMeA][NHCH2CH2SCH2CO]P[Phe(4-F)]T[Phe(4-Cl)][NMeF][dNMeA][hSer](Me))) |  | 0.25 to 0.5 ×10⁻⁶ cm/s |
| COCC[C@@H]1NC(=O)[C@H](C)N(C)C(=O)[C@H](Cc2ccccc2)N(C)C(=O)[C@H](Cc2ccc(Cl)cc2)NC(=O)[C@H]([C@@H](C)O)NC(=O)[C@H](Cc2ccc(F)cc2)NC(=O)[C@@H]2CCCN2C(=O)CSCCNC(=O)[C@H](C)N(C)C1=O [compound 4] (cyclo([NMeA][hSer](Me)[NMeA][NHCH2CH2SCH2CO]P[Phe(4-F)]T[Phe(4-Cl)][NMeF])) |  | 0.1 to 0.25 ×10⁻⁶ cm/s |
| COCC[C@@H]1NC(=O)[C@H](C)N(C)C(=O)[C@H](Cc2ccccc2)N(C)C(=O)[C@H](Cc2ccc(Cl)cc2)NC(=O)[C@H]([C@@H](C)O)NC(=O)[C@H](Cc2ccc(F)cc2)NC(=O)CN(CCOC)C(=O)CSC[C@H](Cc2cscn2)NC(=O)[C@H](C)N(C)C1=O [compound 6] (cyclo([NMeA][hSer](Me)[NMeA][X1][Nme][Phe(4-F)]T[Phe(4-Cl)][NMeF])) |  | 0.1 to 0.25 ×10⁻⁶ cm/s |

The next lines start with the values.

| Papp A→B at 2 h, 10 μM (dog) | Papp A→B | Compound |
| --- | --- | --- |
| < 0.1 ×10⁻⁶ cm/s |  | COCC[C@@H]1NC(=O)[C@H]2CCCN2C(=O)[C@H](Cc2ccccc2)N(C)C(=O)[C@H](Cc2ccc(Cl)cc2)NC(=O)[C@H](C(C)(C)C)NC(=O)[C@H](Cc2ccc(F)cc2)NC(=O)[C@H](C)N(C)C(=O)[C@@H](C)N(C)C(=O)[C@H](Cc2cscn2)NC(=O)[C@H](C)N(C)C1=O [Comparative Example 1, reference compound] (cyclo([Ala(4-thiazolyl)][dNMeA][NMeA][Phe(4-F)][Tle][Phe(4-Cl)][NMeF][dP][hSer](Me)[NMeA])) |
|  | 0.1 to 0.25 ×10⁻⁶ cm/s | COCC[C@@H]1NC(=O)[C@H](C)N(C)C(=O)[C@H](Cc2ccccc2)N(C)C(=O)[C@H](Cc2ccc(Cl)cc2)NC(=O)[C@H]([C@@H](C)O)NC(=O)[C@H](Cc2ccc(F)cc2)NC(=O)[C@@H]2CCCN2C(=O)CSC[C@H](Cc2cscn2)NC(=O)[C@H](C)N(C)C1=O [compound 5] (cyclo([NMeA][hSer](Me)[NMeA][X1]P[Phe(4-F)]T[Phe(4-Cl)][NMeF])) |
